Where two headings read alike, the source gives them in different places. Where a SMILES comes first, the peptide text is derived from it. Bridges are numbered along the chain shown (N, C = ends). [ ]: non-standard residue; d: D form. Nle = CCCC[C@H](N)C(=O)O
Legend:
[1] = Stability of peptides incubated in rat plasma at 37° C., HPLC; format: in vitro ADME
Description: The stability of the Ang(1-7) peptide analog TCAng04 (SEQ ID NO:5) was assessed in rat plasma. The peptide was incubated with rat plasma at 37° C. for 60 min (left) or 125 hours (right). The concentration of TCAng04 and Ang-(1-7) was determined by HPLC using verified standards. Ang-(1-7) was rapidly degraded following incubation in rat plasma with a half-life of about 30 min, similar to the pharmacokinetics observed in two clinical trials (FIG. 1B) (see Rodgers et al. Cancer Chemother Pharmacol 2006; 57:559-68; and Petty et al. Clinical Cancer Research 2009; 15:7398-404). Conversely, TCAng04 was stable under the same conditions, with a half-life in rat plasma of approximately 50 hours.

4T1 breast cancer cells [2] = assay: In vivo inhibition of tumor growth by subcutaneous administration, orthotopic 4T1 model in BALB/C mice; design: species or system mouse
Description: The ability of TCAng05 to inhibit tumor growth in vivo was measured in an orthotopic model of human breast cancer, using 4T1 breast cancer cells. 4T1 cells (2.5×10^5 in saline) were injected into the 4th mammary fat pad of BALB/C mice. Tumor size was measured every 3 days using a caliper and tumor volume was calculated using the formula for a semi-ellipsoid. The tumors were allowed to grow until they reached a size of 100 mm^3, at which point subcutaneous treatment was started (Day 0). Primed osmotic mini-pumps were implanted into the subcutaneous space on the back of each mouse to deliver either saline, 24 μg/kg/h Ang-(1-7), 6 μg/kg/h TCAng05 (low), 12 μg/kg/h TCAng05 (medium), or 24 μg/kg/h TCAng05 (high). Mice were sacrificed on Day 21 of treatment. Five animals were used per treatment group. […] Treatment with Ang-(1-7) reduced tumor size 50%, to a final size of 495.5±110.8 mm^3. […] At the time of sacrifice, the mice were weighed and the tumors, heart and kidneys were weighed.

[3] = system: MDA-MB-231 human breast cancer cells; format: cell-based; conditions: 7 to 10 days; for reduction of cell growth / effect on MDA-MB-231 cell growth: 100 nM; for reduction of cell growth: analogs added on Day 0 (single dose), cell number; for effect on MDA-MB-231 cell growth: added once (Day 0/Day 1)
Description: (§1) To determine the effect of the peptide analogs on tumor cell growth, 100 nM Ang-(1-7) or analogs TCAng01-TCAng05 (SEQ ID NOs:2-6) were incubated with subconfluent monolayers of actively growing A549 human lung cancer cells or MDA-MB-231 human breast cancer cells in 24-well cluster plates for 6 to 10 days or 7 to 10 days. Assays were performed in duplicate for 4-14 replicates or 3-14 replicates, respectively. Cell number was counted using a Nexelcom Cellometer. […] Ang-(1-7) does inhibit the growth of human breast cancer cells (by 42.9±5.2%, n=6, over 6-10 days) and human lung cancer cells (by 53.1±7.1%, n=12, over 7-10 days) if it is added daily, as shown in FIG. 2 and FIG. 3.
A linear form of TCAng05 (L-TCAng05; SEQ ID NO:7) was tested to determine the influence of cyclization on the stability of the peptide. Subconfluent monolayers of MDA-MB-231 human breast cancer cells were incubated with 100 nM of Ang-(1-7), L-TCAng05, or TCAng05 for 7 to 10 days and cell number was counted using a Nexelcom Cellometer. Assays were performed in duplicate for 3-14 replicates. Ang-(1-7) was added daily, due to its rapid degradation.
Similar assays were performed to assess whether inhibition of cell growth by TCAng05 was mediated by the Ang-(1-7) receptor mas. Subconfluent monolayers of MDA-MB-231 human breast cancer cells were incubated with 100 nM of Ang-(1-7), added daily, or TCAng05, in the presence or absence of 1 μM Ang-(1-7) receptor antagonist D-Alanine^7-Ang-(1-7) [Dala] for 7 to 10 days and cell number was counted using a Nexelcom Cellometer. Assays were performed in duplicate for 4-14 replicates.

[4] = system: A549 human lung cancer cells; format: cell-based; conditions: 100 nM, analogs added on Day 0 (single dose), cell number
Description: as §1

4T1 breast cancer cells [5] = format: in vivo, mouse; conditions: for final tumor volume: daily gavage, untreated 671.2±127.2
Description: The oral efficacy of TCAng05 to inhibit tumor growth in vivo was also measured using the orthotopic model of human breast cancer described in Example 4. 4T1 breast cancer cells were injected into the mammary fat pad of BALB/C mice (2.5×10^5 cells in saline). Tumor size was measured every 3 days using a caliper and tumor volume was calculated using the formula for a semi-ellipsoid. The tumors were allowed to grow until they reached a size of 100 mm^3, at which point treatment was started (Day 0). Mice received daily gavage of TCAng05 at one of three concentrations: 12 μg/kg/day (Low), 60 μg/kg/day (Medium), or 300 μg/kg/day (High). Mice were sacrificed on Day 21 of treatment. Treatment groups contained 3-4 animals. […] At the time of sacrifice, the tumors were weighed.

Ki67 = Ki67 immunohistochemistry of tumors from orally treated mice (cell proliferation); format: in vivo, mouse; conditions: oral TCAng05, 12, 60, 300 μg/kg/day
Description: (§2) To identify the molecular mechanisms for the reduction in tumor weight, tumors from mice that received oral TCAng05 (described in Example 5) were assessed for cell markers associated with cell proliferation, angiogenesis, and fibrosis. Tumors were fixed in 4% formalin, embedded in paraffin, sectioned at 5 microns, and analyzed by immunohistochemistry. Tumor tissue sections were visualized using a Leica DM microscope (Leica Microsystems, Bannockburn, Ill.) with the Simple PCI Version 6.0 computer-assisted imaging software (Hamamatsu Corporation, Sewickley, Pa.) and photographed with the Qlmaging Retiga 1300R Camera (Qlmaging Co. Surey, BC, Canada). The number of immunopositive cells is expressed as a percentage of the total cell number examined (100 cells counted from each tissue site within a tumor section).
Tumor sections were stained with an antibody specific for Ki67 to measure cell proliferation.

CD34 = CD34 immunohistochemistry of tumors from orally treated mice (blood vessel density); format: in vivo, mouse; conditions: oral TCAng05
Description: as §2
Tumor sections were stained with an antibody specific for CD34 to label endothelial cells lining blood vessels and measure the density of blood vessels. […] In previous studies with orthotopic models, Ang-(1-7) reduced angiogenesis in mice with human lung tumors or human prostate tumors (Soto-Pantoj a et al., Mol Cancer Ther 2009; 8:1676-83; Krishnan et al., Prostate 2013; 73:60-70). This is in agreement with a reduction in the pro-angiogenic peptide platelet-derived growth factor (PDGF) in patients with solid tumors treated with Ang-(1-7) (Petty et al., BMC Cancer 2012; 12:404).

collagen = assay: Picrosirius red collagen staining of tumors from orally treated mice (fibrosis); format: in vivo, mouse; conditions: oral TCAng05
Description: as §2
Tumor sections were stained with Picrosirius red to stain for collagen.

[6] = system: MDA-MB-231 human breast cancer cells; assay: In vitro inhibition of MDA-MB-231 cell growth by analogs with amino acid substitutions (Example 7); format: cell-based; conditions: 100 nM, 8-10 days; for growth inhibition compared with Ang-(1-7) and TCAng05: added twice weekly
Description: To determine whether the novel analogs reduced tumor growth, subconfluent monolayers of actively growing MDA-MB-231 human breast cancer cells in 24-well cluster plates were incubated with 100 nM of Ang(1-7) (A7), TCAng05 (TC), or one of analogs NEP1-24 for 8-10 days. Ang-(1-7) was added daily as it is rapidly degraded while the Ang(1-7) analogs were added twice weekly at the time the cells were fed. Saline was used as control (C). Cell numbers were then counted using a Nexelcom Cellometer. Assays were performed in triplicate for 2-4 replicates.

[7] = rat plasma, 37° C., HPLC, read-out: half-life in rat plasma (converted)

## CC[C@H](C)[C@H](NC(=O)[C@H](Cc1ccc(O)cc1)NC(=O)[C@@H](NC(=O)[C@H](CCCNC(=N)N)NC(=O)[C@@H](N)CC(=O)O)C(C)C)C(=O)N[C@@H](Cc1c[nH]cn1)C(=O)N1CCC[C@H]1C(=O)O [Ang-(1-7), DRVYIHP]
[1]; [7]
  half-life: ~30 min
[1]; read-out: half-life in plasma
  half-life: 30 min
4T1 breast cancer cells [2]; subcutaneous treatment, at sacrifice
  weight of the mice, size of hearts and kidneys: no change

## CC[C@H](C)[C@@H]1NC(=O)[C@H](Cc2ccc(O)cc2)NC(=O)[C@H](C(C)C)NC(=O)[C@H](CCCNC(=N)N)NC(=O)[C@H](CC(=O)O)NC(=O)C[C@@H](C(=O)N[C@@H](C(=O)N2CCC[C@@H]2C(N)=O)C(C)C)NC(=O)[C@@H]2CCCN2C(=O)[C@H](Cc2c[nH]cn2)NC1=O [TCAng04, cyc[DRVYIHPD](dV)(dP)-amide] (DRVYIHPD[dV][dP]-NH2; lactam N-8)
[1]; [7]
  half-life: ~3000 min
[3]
  reduction of cell growth: 51.5±5.4%
[4]
  reduction of cell growth: 33.7±12.3%

## Ac-(Nle)DRVYIHPK(dV)(dP)-amide (Ac-[Nle]DRVYIHPK[dV][dP]-NH2; SMILES CCCC[C@H](NC(C)=O)C(=O)N[C@@H](CC(=O)O)C(=O)N[C@@H](CCCNC(=N)N)C(=O)N[C@H](C(=O)N[C@@H](Cc1ccc(O)cc1)C(=O)N[C@H](C(=O)N[C@@H](Cc1c[nH]cn1)C(=O)N1CCC[C@H]1C(=O)N[C@@H](CCCCN)C(=O)N[C@@H](C(=O)N1CCC[C@@H]1C(N)=O)C(C)C)[C@@H](C)CC)C(C)C) [L-TCAng05, linear form of TCAng05]
[3]
  effect on MDA-MB-231 cell growth: ineffective

## [Lac(2,9)[Ac-(Nle)cyc[DRVYIHPK](dV)(dP)-amide (Ac-[Nle]DRVYIHPK[dV][dP]-NH2; lactam 2-9; not fully specified; printed as [Lac(2,9)[Ac-(Nle)cyc[DRVYIHPK](dV)(dP)-amide) [TCAng05]
[3]; 100 nM peptide plus 1 μM D-Alanine7-Ang-(1-7) [Dala]
  inhibition of growth in the presence of Ang-(1-7) receptor antagonist Dala: blocked
[3]
  effect on MDA-MB-231 cell growth: reduced growth
  reduction of cell growth: 51.5±5.4%
[4]
  reduction of cell growth: 33.7±12.3%
4T1 breast cancer cells [2]; 24 μg/kg/h, subcutaneous osmotic mini-pump, saline 980.1±35.0
  final tumor size (volume): 259.1±19.2 mm^3
4T1 breast cancer cells [2]; 6, 12, 24 μg/kg/h subcutaneous
  tumor size across doses: dose-dependent reduction
4T1 breast cancer cells [2]; highest concentration (24 μg/kg/h), subcutaneous, at sacrifice
  reduction in tumor weight: 48%
4T1 breast cancer cells [2]; low (6 μg/kg/h) and medium (12 μg/kg/h) doses, subcutaneous
  effect of low and medium doses: not significantly impact
4T1 breast cancer cells [2]; mouse, in vivo, sc
  weight of the mice, size of hearts and kidneys: no change
4T1 breast cancer cells [5]; high dose 300 μg/kg/day
  final tumor volume: 378.3±151.2 mm^3
4T1 breast cancer cells [5]; low dose 12 μg/kg/day, oral
  effect of low dose: not significantly impact
4T1 breast cancer cells [5]; medium dose 60 μg/kg/day
  final tumor volume: 289.7±64.2 mm^3
4T1 breast cancer cells [5]; medium or high oral dose, at sacrifice
  tumor weight: reduced
4T1 breast cancer cells [5]; mouse, in vivo, po
  mouse weight, heart weight or kidney weight: no effect
Ki67
  Ki67 immunoreactivity in tumor sections: dose-dependent reduction
CD34
  density of blood vessels (CD34) in tumor sections: significant reduction
collagen
  collagen staining (Picrosirius red) in tumor sections: reduced
[6]; Ang-(1-7) added daily, analogs added twice weekly
  reduction of cell growth: 27.3±9.8%

## [Lac(2,9)]Ac-(Nle)cyc[DRVYAHPK](dV)(dP)-amide (Ac-[Nle]DRVYAHPK[dV][dP]-NH2; lactam 2-9; not fully specified; printed as [Lac(2,9)]Ac-(Nle)cyc[DRVYAHPK](dV)(dP)-amide) [NEP4]
[6]
  growth inhibition compared with Ang-(1-7) and TCAng05: reduced cell growth comparably

## [Lac(2,9)]Ac-(Nle)cyc[DRVYIHP(Dab)](dV)(dP)-amide [NEP24]
[6]
  growth inhibition compared with Ang-(1-7) and TCAng05: reduced cell growth comparably

## [Lac(2,9)]Ac-(Nle)cyc[DRVYIHP(K)-amide] (Ac-[Nle]DRVYIHPK-NH2; lactam 2-9; not fully specified; printed as [Lac(2,9)]Ac-(Nle)cyc[DRVYIHP(K)-amide]) [NEP8]
[6]
  growth inhibition compared with Ang-(1-7) and TCAng05: reduced cell growth comparably

## [Lac(2,9)]Ac-(Nle)cyc[DRVYIHP(NMeK)](dV)(dP)-amide [NEP20]
[6]
  growth inhibition compared with Ang-(1-7) and TCAng05: reduced cell growth comparably

## [Lac(2,9)]Ac-(Nle)cyc[DRVYLHPK](dV)(dP)-amide (Ac-[Nle]DRVYLHPK[dV][dP]-NH2; lactam 2-9; not fully specified; printed as [Lac(2,9)]Ac-(Nle)cyc[DRVYLHPK](dV)(dP)-amide) [NEP12]
[6]
  growth inhibition compared with Ang-(1-7) and TCAng05: reduced cell growth comparably

## [Lac(2,9)]H2N-(Nle)cyc[DRVYIHPK](dV)(dP)-amide (H-[Nle]DRVYIHPK[dV][dP]-NH2; lactam 2-9; not fully specified; printed as [Lac(2,9)]H2N-(Nle)cyc[DRVYIHPK](dV)(dP)-amide) [NEP16]
[6]
  growth inhibition compared with Ang-(1-7) and TCAng05: reduced cell growth comparably

Source: patent US10829519B2, “Angiotensin (1-7) analogs and methods relating thereto” (WAKE FOREST UNIVERSITY HEALTH SCIENCES, priority 2015, dated 2020)
